Test results taken from patent publication US20230293560A1, “METHOD FOR MODULATING THE BLADDER MICROBIOME TO IMPROVE BLADDER HEALTH” (Kimberly-Clark Worldwide, Inc., priority 2020, published 2023).

How the values were obtained:
L. crispatus = experiment: High throughput assay screening of prebiotics; type: cell-based, Lactobacillus crispatus; set-up: key: ++: if growth and fermentation was equal to or greater than the positive control; +: if growth and fermentation was less than the positive control; +: if weak or no growth or fermentation; +^2: Bacteria demonstrated growth but no fermentation on the prebiotic; conditions: 2% w/v prebiotic in API 50 CHL media; for growth and fermentation vs positive control, Lc-2: L. crispatus KC16-7134-3C, Bladder; for growth and fermentation vs positive control, Lc-3: L. crispatus KC18-1173-1, Bladder; for growth and fermentation vs positive control, Lc-4: L. crispatus KC18-1174-1, Vagina; for growth and fermentation vs positive control, Lc-1: L. crispatus ATCC 33820, Culture Collection
Procedure: (§1) Most of the prebiotic compounds were initially tested in a high throughput assay screening process, described further in the Test Methods section herein, but three prebiotics (as noted in Table 3) were tested using a plate assay screening process as described in the Test Methods section herein. The prebiotics were tested against the commensal bacterial species of Lactobacillus crispatus, Lactobacillus gasseri, and Lactobacillus jensenii and against the pathogenic bacterial species of Streptococcus anginosus and Enterococcus faecalis as shown in Table 2. The bacterial species were taken from different sources, listed as culture collection, bladder, and vagina.
(§2) The results of the assay plate screening of the prebiotic compounds of Table 1 against the bacterial species of Table 2 is documented in Table 3 with the results being described by the following legend: • ++ if growth and fermentation was equal to or greater than the positive control • + if growth and fermentation was less than the positive control • […] if weak or no growth or fermentation • NT if not tested Some codes were not tested based on the use or non-use by the bacteria, as a way to efficiently move through the assay plate screening to the competition assay, described below.
(§3) • 1. Create a 2% w/v stock of prebiotic or positive control (glucose/dextrose) to be tested in API 50 CHL media (Biomerieux, Marcy-I'Étoile, France). API 50 CHL media contains minimal amounts of carbon for growth, and a bromocresol purple as a pH indicator of fermentation. Filter sterilize media with a […]. Store at 4-6° C. until use. • 2. Add 180 μL of media containing the prebiotic to a sterile, flat bottom 96-well microtiter plate (Corning, Corning, NY). • 3. From a freezer stock subculture the bacteria twice into De Man, Rogosa and Sharpe (MRS) broth (BD Difco, Becton Dickinson, Franklin Lakes, NJ), 37° C., stationary, anaerobic, overnight. • 4. From the last subculture, plate onto an MRS agar plate (Teknova, Hollister, CA) and grow 37° C., stationary, anaerobic, overnight. • 5. Create a bacterial suspension by using a sterile tipped swab to transfer colonies of bacteria into a PBS suspension blank to a 0.5 MacFarland (S. anginosus or E. faecalis) or a 1 MacFarland (Lactobacillus species) from the MRS agar plate. • 6. Enumerate the starting culture. • 7. Inoculate the media alone and media containing the prebiotic or positive control with 20 μL of the bacterial suspension. • 8. Place the plate into a spectrophotometer (Molecular Devices, San Jose, CA) and read the plate every 20 minutes for 24-48 hours. Read wavelengths (OD 430, OD 590, and OD 660). A color change to yellow caused by a drop in pH will be read by an increase in the OD430 value and a decrease in the OD590 value and is indicative of bacterial fermentation. An increase in OD660 values is indicative of an increase in turbidity and bacterial growth.

E. faecalis = experiment: High throughput assay screening of prebiotics; type: cell-based, Enterococcus faecalis; set-up: key: ++: if growth and fermentation was equal to or greater than the positive control; +: if growth and fermentation was less than the positive control; +: if weak or no growth or fermentation; +^2: Bacteria demonstrated growth but no fermentation on the prebiotic; conditions: 2% w/v prebiotic in API 50 CHL media; for growth and fermentation vs positive control, Ef-2: E. faecalis KC16-7171-3, Bladder; for growth and fermentation vs positive control, Ef-3: E. faecalis KC17-3969-2B, Bladder; for growth and fermentation vs positive control, Ef-4: E. faecalis KC17-4331-3, Bladder; for growth and fermentation vs positive control, Ef-1: E. faecalis ATCC BAA-2128, Culture Collection
Procedure: as §1, §2, §3

S. anginosus = experiment: High throughput assay screening of prebiotics; type: cell-based, Streptococcus anginosus; set-up: key: ++: if growth and fermentation was equal to or greater than the positive control; +: if growth and fermentation was less than the positive control; +: if weak or no growth or fermentation; +^2: Bacteria demonstrated growth but no fermentation on the prebiotic; conditions: 2% w/v prebiotic in API 50 CHL media; for growth and fermentation vs positive control, Sa-2: S. anginosus KC18-1131-3B, Bladder; for growth and fermentation vs positive control, Sa-1: S. anginosus ATCC 33397, Culture Collection
Procedure: as §1, §2, §3

[1] = system: commensal and pathogenic bacterial species; experiment: Prebiotic screening, summary in words across species; type: cell-based; conditions: commensal (L. crispatus, L. gasseri, L. jensenii) and pathogenic (S. anginosus, E. faecalis) species
Procedure: as §1, §2, §3
• 1. An in house bacterial agar was created based on MRS agar (Kaplan and Hutkins, 2000) where the glucose is substituted for the prebiotic to be tested (either dextran MW ˜6,000, alpha-cyclodextrin, glucomannan, or pectin), bromocresol purple was included as a pH indicator. • 2. Bacteria were enumerated on each agar and color changes were recorded. Method for Competition Assay (Modified from “In Vitro Evaluation of Nutrients that Selectively Confer a Competitive Advantage to Lactobacilli” Vongsa et al, Beneficial Microbes 2016) • 1. Create 2% w/v stock of prebiotic or positive control (glucose/dextrose) as described above. • 2. From a freezer stock subculture the bacteria twice into De Man, Rogosa and Sharpe (MRS) broth (BD Difco, Becton Dickinson, Franklin Lakes, NJ), 37° C., stationary, anaerobic, overnight. • 3. From the last subculture, plate onto an MRS agar plate for L. crispatus KC18-1173-1 or blood agar for S. anginosus KC18-1131-3B, grow 37° C., stationary, anaerobic, overnight. • 4. […]

L. gasseri = experiment: High throughput assay screening of prebiotics; type: cell-based, Lactobacillus gasseri; set-up: key: ++: if growth and fermentation was equal to or greater than the positive control; +: if growth and fermentation was less than the positive control; +: if weak or no growth or fermentation; +^2: Bacteria demonstrated growth but no fermentation on the prebiotic; conditions: 2% w/v prebiotic in API 50 CHL media; for growth and fermentation vs positive control, Lg-1: L. gasseri KC16-7135-1, Bladder; for growth and fermentation vs positive control, Lg-2: L. gasseri KC16-7171-1, Bladder; for growth and fermentation vs positive control, Lg-3: L. gasseri KC18-1131-2, Bladder; for growth and fermentation vs positive control, Lg-4: L. gasseri KC18-1142-2, Bladder
Procedure: as §1, §2, §3

L. jensenii = experiment: High throughput assay screening of prebiotics; type: cell-based, Lactobacillus jensenii; set-up: key: ++: if growth and fermentation was equal to or greater than the positive control; +: if growth and fermentation was less than the positive control; +: if weak or no growth or fermentation; +^2: Bacteria demonstrated growth but no fermentation on the prebiotic; conditions: 2% w/v prebiotic in API 50 CHL media; for growth and fermentation vs positive control, Lj-1: L. jensenii KC17-4297-18, Bladder; for growth and fermentation vs positive control, Lj-2: L. jensenii KC17-4347-1, Bladder
Procedure: as §1, §2, §3

Row | Compound | growth and fermentation vs positive control, Lc-2 (L. crispatus) | growth and fermentation vs positive control, Lc-3 (L. crispatus) | growth and fermentation vs positive control, Lc-4 (L. crispatus) | growth and fermentation vs positive control, Ef-2 (E. faecalis) | growth and fermentation vs positive control, Ef-3 (E. faecalis) | growth and fermentation vs positive control, Ef-4 (E. faecalis) | growth and fermentation vs positive control, Sa-2 (S. anginosus) | overall outcome of the screening of Table 3, in words [1] | growth and fermentation vs positive control, Lg-1 (L. gasseri) | growth and fermentation vs positive control, Lg-2 (L. gasseri) | growth and fermentation vs positive control, Lg-3 (L. gasseri) | growth and fermentation vs positive control, Lg-4 (L. gasseri) | growth and fermentation vs positive control, Lj-1 (L. jensenii) | growth and fermentation vs positive control, Lj-2 (L. jensenii) | growth and fermentation vs positive control, Lj-3 (L. jensenii; L. jensenii KC17-4368-2, Bladder) | growth and fermentation vs positive control, Lc-1 (L. crispatus) | growth and fermentation vs positive control, Ef-1 (E. faecalis) | growth and fermentation vs positive control, Sa-1 (S. anginosus)
1 | OC[C@H]1O[C@](O)(CO)[C@@H](O)[C@@H]1O [Beta-D-fructose, Beta-D-Fructose] | ++ | ++ | ++ | ++ | ++ | ++ | ++ | able to provide growth on the commensal bacterial species, but also provided growth on the pathogenic bacterial species | + | + | + | + | ++ | + | ++ | – | – | –
2 | OC[C@H]1O[C@@H](O[C@H]2[C@H](O)[C@@H](O)[C@H](O)O[C@@H]2CO)[C@H](O)[C@@H](O)[C@@H]1O [D-Cellobiose] | ++ | + | + | ++ | ++ | ++ | ++ | able to provide growth on the commensal bacterial species, but also provided growth on the pathogenic bacterial species | + | ++ | ++ | ++ | + | – | – | – | – | –
3 | OC[C@H]1O[C@H](O[C@H]2O[C@H](CO)[C@@H](O)[C@H](O)[C@H]2O)[C@H](O)[C@@H](O)[C@@H]1O [D-Trehalose] | – | ++ | + | ++ | ++ | ++ | ++ | – | ++ | ++ | ++ | – | + | – | – | – | – | –
4 | OCc1ccccc1O[C@@H]1O[C@H](CO)[C@@H](O)[C@H](O)[C@H]1O [Salicin] | – | – | – | ++ | ++ | ++ | ++ | able to provide growth on the commensal bacterial species, but also provided growth on the pathogenic bacterial species | ++ | – | – | – | – | ++ | – | ++ | ++ | ++
5 | Maltotriose | ++ | ++ | ++ | ++ | ++ | ++ | ++ | able to provide growth on the commensal bacterial species, but also provided growth on the pathogenic bacterial species | ++ | ++ | – | – | – | ++ | – | ++ | ++ | ++
